The values that follow come from publication PMC6412891, “Synthesis and Biological Evaluation of Novel Thiazolyl-Coumarin Derivatives as Potent Histone Deacetylase Inhibitors with Antifibrotic Activity” (Molecules, 2019).

Like-named read-outs stand apart in the source and are kept apart here.

The test system of data set [1] is HDACs HeLa cells nuclear extract. Kind of data set: HDAC inhibitory activity, fluorometric kit, HeLa cell nuclear extract. It is filed as biochemical, human. As to conditions: HeLa cell nuclear extract as HDAC source.
A further data set deals with T1, HDAC6 human recombinant (Homo sapiens, UniProt Q9UBN7).
T1 construct: purchased Enzo Life Science BML-AK516
T1 sequence (Q9UBN7 1-1215): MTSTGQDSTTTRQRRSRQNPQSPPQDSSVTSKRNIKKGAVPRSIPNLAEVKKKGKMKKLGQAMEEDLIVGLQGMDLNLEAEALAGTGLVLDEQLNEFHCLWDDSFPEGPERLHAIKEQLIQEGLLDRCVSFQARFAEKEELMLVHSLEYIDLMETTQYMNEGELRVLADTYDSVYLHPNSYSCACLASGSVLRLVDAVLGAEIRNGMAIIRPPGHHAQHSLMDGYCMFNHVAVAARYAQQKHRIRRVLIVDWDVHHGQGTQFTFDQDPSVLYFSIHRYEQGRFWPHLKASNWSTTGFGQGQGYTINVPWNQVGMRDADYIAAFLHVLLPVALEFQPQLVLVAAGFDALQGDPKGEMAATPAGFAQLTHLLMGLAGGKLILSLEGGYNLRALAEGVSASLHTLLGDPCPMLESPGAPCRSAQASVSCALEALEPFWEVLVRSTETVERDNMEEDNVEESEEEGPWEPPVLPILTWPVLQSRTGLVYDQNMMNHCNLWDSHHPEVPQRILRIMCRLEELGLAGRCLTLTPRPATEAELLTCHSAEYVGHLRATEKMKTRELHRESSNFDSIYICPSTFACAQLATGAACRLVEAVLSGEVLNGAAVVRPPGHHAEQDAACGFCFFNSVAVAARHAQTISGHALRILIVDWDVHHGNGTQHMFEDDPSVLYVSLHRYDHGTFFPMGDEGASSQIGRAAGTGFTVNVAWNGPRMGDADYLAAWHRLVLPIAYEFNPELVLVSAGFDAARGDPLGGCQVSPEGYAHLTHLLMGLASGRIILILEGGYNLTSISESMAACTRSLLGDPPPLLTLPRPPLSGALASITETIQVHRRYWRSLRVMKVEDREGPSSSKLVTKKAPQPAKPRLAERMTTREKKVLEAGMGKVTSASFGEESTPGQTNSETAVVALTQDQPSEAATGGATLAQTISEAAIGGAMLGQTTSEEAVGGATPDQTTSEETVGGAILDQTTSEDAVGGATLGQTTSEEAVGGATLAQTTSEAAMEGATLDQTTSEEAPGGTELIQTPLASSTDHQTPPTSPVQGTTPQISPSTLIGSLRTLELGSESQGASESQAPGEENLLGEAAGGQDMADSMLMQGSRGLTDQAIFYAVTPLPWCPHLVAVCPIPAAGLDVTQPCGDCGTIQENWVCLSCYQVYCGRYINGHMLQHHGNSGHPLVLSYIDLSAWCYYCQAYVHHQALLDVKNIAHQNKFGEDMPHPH
The data set can be described thus: HDAC6 inhibitory activity, fluorometric kit. It is filed as biochemical. As to conditions: Class II.

Data set [2] deals with neonatal rat cardiac fibroblasts (CFs). The data set can be described thus: FBS-induced cardiac fibroblast proliferation assay (Alamar Blue). It is filed as cell-based. As to conditions: 10% FBS-induced CF proliferation, 48 h, read-out: Inhibition percentage of cell proliferation. As to the method: CFs were treated for 48 h with 10% fetal bovine serum (FBS), to induce CFs proliferation in presence/absence of each new CTz derivatives in a concentration range of 1–10 μM. In Table 4, the inhibition percentage of cell proliferation for each concentration of the synthesized compounds are shown. All derivatives inhibited CFs proliferation induce by serum.
Sprague Dawley rats were obtained from the Animal Breeding Facility of the School of Chemical and Pharmaceutical Sciences at the University of Chile. All studies followed the Guide for the Care and Use of Laboratory Animals published by the US National Institutes of Health (NIH Publication 8th, 2011), and experimental protocols were approved by the University of Chile Institutional Ethics Review Committee. CF were isolated from of 2 or 3–day–old Sprague-Dawley rats and cultured as described previously. Briefly, the neonatal rats were decapitated and their hearts were extracted under aseptic environment. Atria were removed and ventricles were cut into small pieces (~1–2 mm) for posterior colagenase II digestion. The digestion yield was separated by 10 min centrifugation at 89×g. The pellet was resuspended in 10 mL of Dulbecco’s Modified Eagle’s Medium/Nutrient F-12 (DMEM-F12) supplemented with 10% FBS and antibiotics (100 μg/mL streptomycin and 100 units/mL penicillin) and cultured in a humid atmosphere of 5% CO2 and 95% O2 at 37°C until confluence (5 days). The purity of the CFs population was assessed through the expression of several markers. CFs had positive staining against vimentin (Santa Cruz Biotechnology), while being negative against sarcomeric actin and desmin (Sigma-Aldrich). Experiments were performed on cells at passage 1. […]
To evaluate cytotoxicity, CFs were seeded in 12 microwell plates at a ratio of 2 × 10^4 cell/cm^2, cultured in DMEM–F12 medium + 10% FBS, which was subsequently replaced by DMEM–F12. After 24 h of serum starvation derivatives were applied at proper times and concentrations in accordance to experimental procedures. Cell viability assays were carried out using Alamar Blue®, a nontoxic, cell permeable non fluorescent compound that is blue in color. Viable cells reduce resazurin to resorufin, which produces very bright red fluorescence which is used as a quantitative cell viability measure. […] The fluorescence of Alamar Blue® was read using microplate reader at 570 excitation and emission to 595 nm. Cell survival was expressed as percentage over the untreated cells. […] Cell proliferation was quantified by Alamar Blue®, according to protocol mentioned before. Cell proliferation was expressed as percentage over the control FBS treated cells.

In the next data set the target is T2, HDAC1 human recombinant (Homo sapiens, UniProt Q13547).
T2 construct: purchased Enzo Life Science BML-AK511
T2 sequence (Q13547 whole entry): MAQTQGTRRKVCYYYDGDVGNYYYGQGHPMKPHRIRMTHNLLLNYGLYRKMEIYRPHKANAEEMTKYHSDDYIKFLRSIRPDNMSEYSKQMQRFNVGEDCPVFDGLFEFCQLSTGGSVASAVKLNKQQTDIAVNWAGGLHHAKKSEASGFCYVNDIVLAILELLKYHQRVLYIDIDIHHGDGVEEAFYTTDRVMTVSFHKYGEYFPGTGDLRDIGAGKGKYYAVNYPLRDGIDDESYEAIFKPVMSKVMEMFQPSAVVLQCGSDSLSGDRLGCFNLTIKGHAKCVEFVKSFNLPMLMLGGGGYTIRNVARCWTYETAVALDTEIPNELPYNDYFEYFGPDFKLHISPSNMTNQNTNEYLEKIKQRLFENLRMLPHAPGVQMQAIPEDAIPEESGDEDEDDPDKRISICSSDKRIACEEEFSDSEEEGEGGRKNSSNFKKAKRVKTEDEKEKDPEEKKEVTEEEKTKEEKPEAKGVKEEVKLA
The data set can be described thus: HDAC1 inhibitory activity, fluorometric kit. It is filed as biochemical. To be noted: Class I.

Data set [3] is described as follows: Cytotoxicity assay (Alamar Blue) in cardiac fibroblasts. Type of data set: cell-based, rat. As to conditions: Sprague-Dawley, rat, primary neonatal rat cardiac fibroblasts (CFs), CFs treated for 48 h. As to the method:
(§1) CFs were treated for 48 h with all the new CTz derivatives in a broad concentration range (100 μM^−1 mM), and their cytotoxicity was then evaluated. In Table 3 cytotoxic concentration 50 (CC50) values for each of the synthesized compounds are shown. […] When comparing the different ZBG the series 5 is the least cytotoxic for CFs, while series 8 was the most cytotoxic.
(§2) Sprague Dawley rats were obtained from the Animal Breeding Facility of the School of Chemical and Pharmaceutical Sciences at the University of Chile. All studies followed the Guide for the Care and Use of Laboratory Animals published by the US National Institutes of Health (NIH Publication 8th, 2011), and experimental protocols were approved by the University of Chile Institutional Ethics Review Committee. CF were isolated from of 2 or 3–day–old Sprague-Dawley rats and cultured as described previously. Briefly, the neonatal rats were decapitated and their hearts were extracted under aseptic environment. Atria were removed and ventricles were cut into small pieces (~1–2 mm) for posterior colagenase II digestion. The digestion yield was separated by 10 min centrifugation at 89×g. The pellet was resuspended in 10 mL of Dulbecco’s Modified Eagle’s Medium/Nutrient F-12 (DMEM-F12) supplemented with 10% FBS and antibiotics (100 μg/mL streptomycin and 100 units/mL penicillin) and cultured in a humid atmosphere of 5% CO2 and 95% O2 at 37°C until confluence (5 days). The purity of the CFs population was assessed through the expression of several markers. CFs had positive staining against vimentin (Santa Cruz Biotechnology), while being negative against sarcomeric actin and desmin (Sigma-Aldrich). Experiments were performed on cells at passage 1. Cells were cultured in 35-mm well plates and serum starved for 24 h prior to stimulation.
(§3) To evaluate cytotoxicity, CFs were seeded in 12 microwell plates at a ratio of 2 × 10^4 cell/cm^2, cultured in DMEM–F12 medium + 10% FBS, which was subsequently replaced by DMEM–F12. After 24 h of serum starvation derivatives were applied at proper times and concentrations in accordance to experimental procedures. Cell viability assays were carried out using Alamar Blue®, a nontoxic, cell permeable non fluorescent compound that is blue in color. Viable cells reduce resazurin to resorufin, which produces very bright red fluorescence which is used as a quantitative cell viability measure. 10 μL of 0.2 mg/mL Alamar Blue® was added into each well followed by incubation for 24 h. The fluorescence of Alamar Blue® was read using microplate reader at 570 excitation and emission to 595 nm. Cell survival was expressed as percentage over the untreated cells. To evaluate CFs proliferation assay, cells were seeded as mentioned before, and after serum starvation, they were stimulated by 10% fetal bovine serum (FBS), in presence/absence of CTz derivatives for […], at concentrations according to experiment. Cell proliferation was quantified by Alamar Blue®, according to protocol mentioned before. Cell proliferation was expressed as percentage over the control FBS treated cells.
Background: Alamar Blue is a resazurin reagent that responds to reducing activity.

The subject of data set [4] is neonatal rat cardiac fibroblasts (CFs). The data set is described as above. Type of data set: cell-based. As to conditions: CFs treated for 48 h. As to the method:
as §1, §2, §3

The subject of another data set is CFs. On the set-up: method as in PMID 24631770, PMID 24374140. As to conditions: cited from earlier work.
The subject of another data set is HDACs. As to conditions: read-out: IC50 HDAC inhibition, cited from earlier work.

Usually IC50 stands for the point on the concentration scale where inhibition reaches its midpoint. Usually melting point stands for the temperature of the solid-liquid transition. The term CC50 denotes the concentration that lowers cell viability or growth by half. A high value points to better tolerance by the cells. The compound `O=C(CCCCC1CCSS1)Nc1nc(-c2cc3cc(Br)ccc3oc2=O)cs1` (centres unmarked) [Compound 5b, 5-[1,2]-Dithiolan-3-yl-N-[4-(6-bromo-2-oxo-2H-chromen-3-yl)-thiazol-2-yl]-pentanamide] displayed a melting point of 150 to 153 °C. In addition, the IC50 in data set [1] came out at 0.0621 ± 0.0025 µM. Besides, on HDAC6 human recombinant, the IC50 came to 0.123 ± 0.0051 µM. For the same compound, in data set [2], the inhibition at 1 µM amounted to 71.5 ± 3.8%, the inhibition at 5 µM was 89.1 ± 9.5% and the inhibition at 10 µM came out at 96.4 ± 4.7%. In addition, on HDAC1 human recombinant, the 50% inhibitory concentration (IC50) is 0.0476 ± 0.0023 µM. Further, the CC50 at 48 h in data set [3] turned out to be 127 ± 19.2 µM.

For `COc1ccc2oc(=O)c(-c3csc(NC(=O)CCCCC4CCSS4)n3)cc2c1` (centres unmarked) [Compound 5c, 5-[1,2]-Dithiolan-3-yl-N-[4-(6-methoxy-2-oxo-2H-chromen-3-yl)-thiazol-2-yl]-pentanamide], the melting point is 83 to 84 °C. Half-maximal inhibition in [1] (IC50) required 0.05 ± 0.0017 µM. Further, the concentration for half-maximal inhibition (IC50) at HDAC6 human recombinant was determined as 0.0841 ± 0.0029 µM. Besides, in [2], the inhibition at 1 µM amounted to 67 ± 8.3%, the inhibition at 5 µM was 83.2 ± 6.8% and the inhibition at 10 µM came to 91.2 ± 3.2%. The IC50 on HDAC1 human recombinant worked out at 0.0397 ± 0.0013 µM. In [3], this compound showed a cytotoxic concentration (CC50) at 48 h of 171 ± 6.1 µM.

In the case of `O=C(CCCCC(=O)Nc1nc(-c2cc3cc(Br)ccc3oc2=O)cs1)NO` [Compound 8b, 5-[4-(6-Bromo-2-oxo-2H-chromen-3-yl)-thiazol-2-yl-carbamoyl]-N-hydroxypentanamide], in [1], the IC50 came out at 0.0571 ± 0.0045 µM. Also, the half-maximal inhibitory concentration (IC50) at HDAC6 human recombinant stood at 0.0802 ± 0.0037 µM. Moreover, in data set [2], the inhibition at 1 µM was found to be 72.7 ± 3.9%, the inhibition at 5 µM was found to be 94.4 ± 7% and the inhibition at 10 µM is 104 ± 2.8%. Moreover, the IC50 on HDAC1 human recombinant is 0.0454 ± 0.0026 µM. This compound displayed a cytotoxic concentration (CC50) at 48 h in data set [3] of 72.4 µM. In addition, the CC50 in data set [4] was 72.5 ± 11.6 µM.

As to `COc1ccc2oc(=O)c(-c3csc(NC(=O)CCCCC(=O)NO)n3)cc2c1` [Compound 8c, 5-[4-(6-Methoxy-2-oxo-2H-chromen-3-yl)-thiazol-2-yl-carbamoyl]-N-hydroxypentanamide], the melting point was 125 to 127 °C (dec.). In data set [1], 0.0415 ± 0.0027 µM corresponded to half-maximal inhibition (IC50). For the same compound, the IC50 at HDAC6 human recombinant is 0.0626 ± 0.0023 µM. In [2], the inhibition at 1 µM came to 69.7 ± 9.1%, the inhibition at 5 µM was 81.8 ± 5.5% and the inhibition at 10 µM stood at 97.7 ± 4.7%. For the same compound, on HDAC1 human recombinant, the IC50 came to 0.0465 ± 0.0022 µM. In data set [3], this compound had a CC50 at 48 h of 86.5 ± 5.9 µM.

Consider `CCC(=O)CCCCC[C@@H]1NC(=O)[C@H]2CCCCN2C(=O)[C@H]([C@@H](C)CC)NC(=O)[C@H](Cc2cn(OC)c3ccccc23)NC1=O` [apicidin], for which the “concentration shown to inhibit the proliferation of CFs” value in the data set on CFs was 3 µM.

Turning to `O=C(O)/C=C/c1ccc(O)c(O)c1` [caffeic acid], the 50% inhibitory concentration (IC50) in the data set with HDACs (catecholic derivatives) is 2540 µM.

Take `O=C(/C=C/c1ccc(O)c(O)c1)O[C@@H]1C[C@](O)(C(=O)O)C[C@@H](O)[C@H]1O` [chlorogenic acid]: the IC50 with HDACs (catecholic derivatives) is 375 µM.

In the case of `Nc1ccccc1NC(=O)c1ccc(CNc2nccc(-c3cccnc3)n2)cc1` [mocetinostat], in the data set on CFs, the “concentration shown to inhibit the proliferation of CFs” value was 1 µM.

Take `O=C(O)CCCc1ccccc1` [phenylbutyric acid]: the IC50 in the data set on HDACs (short chain fatty acids) is 620 µM.

In the case of `CCCC(CCC)C(=O)O` [valproic acid], the half-inhibitory concentration (IC50) in the data set on HDACs (short chain fatty acids) is 140 µM.
